Assay results as given in patent publication US11382918B2, “Methods for treating Huntington's Disease” (PTC Therapeutics, Inc., priority 2017, dated 2022).
Where a name gives a salt, the structure may show the parent alone.

System: Endogenous Huntingtin Protein (HTT)
Experiment: Endogenous Huntingtin Protein Assay (ELISA-based MSD electrochemiluminescence)
Assay type: cell-based
Conditions: Table 1
Summary of the method: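 MSD electrochemiluminescence sandwich ELISA for endogenous HTT: sample lysates captured overnight at 4 °C on MW1 (expanded polyglutamine) or MAB2166 antibody. Detection used rabbit monoclonal #5656S, then goat anti-rabbit SULFO-TAG antibody, each 1 h at room temperature.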

| SMILES | IC50 [nM] |
| --- | --- |
| Cn1cc(-c2cc(=O)n3cc(N4CCNCC4)ccc3n2)cn1 [compound 192, 2-(1-methyl-1H-pyrazol-4-yl)-7-(piperazin-1-yl)-4H-pyrido[1,2-a]pyrimidin-4-one] | 3000 to 33000 |
| Cc1cn2nc(-c3cc(=O)n4cc(N5CCN(C)CC5)ccc4n3)cc2c(C)n1 [compound 170, 2-(4,6-dimethylpyrazolo[1,5-a]pyrazin-2-yl)-7-(4-methylpiperazin-1-yl)-4H-pyrido[1,2-a]pyrimidin-4-one] | 3000 to 33000 |
| CCN1CC=C(c2ccc3nc(-c4cc5c(C)nc(C)cn5n4)cc(=O)n3c2)CC1 [compound 351, 2-(4,6-dimethylpyrazolo[1,5-a]pyrazin-2-yl)-7-(1-ethyl-1,2,3,6-tetrahydropyridin-4-yl)-4H-pyrido[1,2-a]pyrimidin-4-one] | 3000 to 33000 |
| Cc1cn2cc(-c3cc(=O)n4cc(N5CCNCC5)ccc4n3)cc(Cl)c2n1 [compound 287, 2-(8-chloro-2-methylimidazo[1,2-a]pyridin-6-yl)-7-(piperazin-1-yl)-4H-pyrido[1,2-a]pyrimidin-4-one] | 100 to 500 |
| Cc1csc(-c2cc(=O)n3cc(N4CCN[C@@H](C)C4)ccc3n2)n1 [compound 162, 7-[(3S)-3-methylpiperazin-1-yl]-2-(4-methyl-1,3-thiazol-2-yl)-4H-pyrido[1,2-a]pyrimidin-4-one] | 3000 to 33000 |
| Cc1cn2cc(-c3cc(=O)n4cc(N5CCN[C@@H](C)C5)ccc4n3)nc2cn1 [compound 75, 2-(6-methylimidazo[1,2-a]pyrazin-2-yl)-7-[(3S)-3-methylpiperazin-1-yl]-4H-pyrido[1,2-a]pyrimidin-4-one] | 1000 to 3000 |
| Cc1nc2c(F)cc(-c3cc(=O)n4cc(N5CCN[C@@H](C)C5)ccc4n3)cc2o1 [compound 306, 2-(4-fluoro-2-methyl-1,3-benzoxazol-6-yl)-7-[(3S)-3-methylpiperazin-1-yl]-4H-pyrido[1,2-a]pyrimidin-4-one] | 100 to 500 |
| Cc1cn2cc(-c3cc(=O)n4cc(N5CCN(CCOCCO)[C@@H](C)C5)ccc4n3)cc(F)c2n1 [compound 540, 2-(8-fluoro-2-methylimidazo[1,2-a]pyridin-6-yl)-7-{(3S)-4-[2-(2-hydroxyethoxy)ethyl]-3-methylpiperazin-1-yl}-4H-pyrido[1,2-a]pyrimidin-4-one] | 1000 to 3000 |
| Cc1cn2cc(-c3ccc4nc(C5CCN(C)CC5)cc(=O)n4c3)cc(F)c2n1 [compound 462, 7-(8-fluoro-2-methylimidazo[1,2-a]pyridin-6-yl)-2-(1-methylpiperidin-4-yl)-4H-pyrido[1,2-a]pyrimidin-4-one] | 1000 to 3000 |
| Cc1cc2cc(-c3cc(=O)n4cc(N5CCN(C)CC5)ccc4n3)oc2c(C)n1 [compound 487, 2-(5,7-dimethylfuro[2,3-c]pyridin-2-yl)-7-(4-methylpiperazin-1-yl)-4H-pyrido[1,2-a]pyrimidin-4-one] | 500 to 1000 |
| Cc1cn2cc(-c3ccc4nc(N5CCNCC5)cc(=O)n4c3)cc(F)c2n1 [compound 268, 7-(8-fluoro-2-methylimidazo[1,2-a]pyridin-6-yl)-2-(piperazin-1-yl)-4H-pyrido[1,2-a]pyrimidin-4-one] | 3000 to 33000 |
| O=c1cc(-c2ccc3nc(C(F)(F)F)cn3c2)nc2ccc(N3CCNCC3)cn12 [compound 123, 7-(piperazin-1-yl)-2-[2-(trifluoromethyl)imidazo[1,2-a]pyridin-6-yl]-4H-pyrido[1,2-a]pyrimidin-4-one] | 3000 to 33000 |
| CCN1CC=C(c2ccc3nc(-c4ccc5nn(C)cc5c4)cc(=O)n3c2)CC1 [compound 477, 7-(1-ethyl-1,2,3,6-tetrahydropyridin-4-yl)-2-(2-methyl-2H-indazol-5-yl)-4H-pyrido[1,2-a]pyrimidin-4-one] | 1000 to 3000 |
| COc1ccc(-c2cc(=O)n3cc(N4CCC(N(C)C)CC4)cc(C)c3n2)cc1OC [compound 261, 2-(3,4-dimethoxyphenyl)-7-[4-(dimethylamino)piperidin-1-yl]-9-methyl-4H-pyrido[1,2-a]pyrimidin-4-one] | 3000 to 33000 |
| CCN1CC=C(c2ccc3nc(-c4ccn5nc(C)cc5c4)cc(=O)n3c2)CC1 [compound 858, 7-(1-ethyl-1,2,3,6-tetrahydropyridin-4-yl)-2-(2-methylpyrazolo[1,5-a]pyridin-5-yl)-4H-pyrido[1,2-a]pyrimidin-4-one] | 1000 to 3000 |
| Cc1cn2nc(-c3cc(=O)n4cc(N5C[C@@H]6C[C@H]5CN6C)ccc4n3)cc2c(C)n1 [compound 400, 2-(4,6-dimethylpyrazolo[1,5-a]pyrazin-2-yl)-7-[(1S,4S)-5-methyl-2,5-diazabicyclo[2.2.1]hept-2-yl]-4H-pyrido[1,2-a]pyrimidin-4-one] | 3000 to 33000 |
| Cc1cn2nc(-c3cc(=O)n4cc(N5CCN[C@@H](C)C5)ccc4n3)cc2cn1 [compound 441, 7-[(3S)-3-methylpiperazin-1-yl]-2-(6-methylpyrazolo[1,5-a]pyrazin-2-yl)-4H-pyrido[1,2-a]pyrimidin-4-one] | 1000 to 3000 |
| Cc1cn2nc(-c3cc(=O)n4cc(N5C[C@@H](C)N[C@@H](C)C5)ccc4n3)cc2c(C)n1 [compound 131, 7-[(3R,5S)-3,5-dimethylpiperazin-1-yl]-2-(4,6-dimethylpyrazolo[1,5-a]pyrazin-2-yl)-4H-pyrido[1,2-a]pyrimidin-4-one] | 3000 to 33000 |
| Cc1cn2cc(-c3ccc4nc(C5CCN(C)CC5)cc(=O)n4c3)ccc2n1 [compound 460, 7-(2-methylimidazo[1,2-a]pyridin-6-yl)-2-(1-methylpiperidin-4-yl)-4H-pyrido[1,2-a]pyrimidin-4-one] | 3000 to 33000 |
| O=c1cc(-c2cccnc2)nc2ccc(N3CCNCC3)cn12 [compound 228, 7-(piperazin-1-yl)-2-(pyridin-3-yl)-4H-pyrido[1,2-a]pyrimidin-4-one] | 3000 to 33000 |
| C[C@@H]1CN(c2ccc3nc(-c4ccc5c(cnn5C)c4)cc(=O)n3c2)CCN1 [compound 545, 2-(1-methyl-1H-indazol-5-yl)-7-[(3R)-3-methylpiperazin-1-yl]-4H-pyrido[1,2-a]pyrimidin-4-one] | 3000 to 33000 |
| Cc1cn2nc(-c3cc(=O)n4cc(C5=CCN(C)CC5)ccc4n3)cc2c(C)n1 [compound 350, 2-(4,6-dimethylpyrazolo[1,5-a]pyrazin-2-yl)-7-(1-methyl-1,2,3,6-tetrahydropyridin-4-yl)-4H-pyrido[1,2-a]pyrimidin-4-one] | 3000 to 33000 |
| Cn1cc2cc(-c3cc(=O)n4cc(N5CCNCC5)ccc4n3)ccc2n1 [compound 137, 2-(2-methyl-2H-indazol-5-yl)-7-(piperazin-1-yl)-4H-pyrido[1,2-a]pyrimidin-4-one] | 1000 to 3000 |

Second part, the compound after the results:

| IC50 [nM] | SMILES |
| --- | --- |
| 3000 to 33000 | Cc1cn2nc(-c3cc(=O)n4cc(N5CCN(CCO)[C@H](C)C5)cc(C)c4n3)cc2c(C)n1 [compound 673, 2-(4,6-dimethylpyrazolo[1,5-a]pyrazin-2-yl)-7-[(3R)-4-(2-hydroxyethyl)-3-methylpiperazin-1-yl]-9-methyl-4H-pyrido[1,2-a]pyrimidin-4-one] |
| 500 to 1000 | Cc1cc(-c2cc(=O)n3cc(C4CCNCC4)ccc3n2)cc2cn(C)nc12 [compound 739, 2-(2,7-dimethyl-2H-indazol-5-yl)-7-(piperidin-4-yl)-4H-pyrido[1,2-a]pyrimidin-4-one] |
| 1000 to 3000 | CCc1nc(C)cn2nc(-c3cc(=O)n4cc(N5CCN(CCO)[C@H](C)C5)ccc4n3)cc12 [compound 632, 2-(4-ethyl-6-methylpyrazolo[1,5-a]pyrazin-2-yl)-7-[(3R)-4-(2-hydroxyethyl)-3-methylpiperazin-1-yl]-4H-pyrido[1,2-a]pyrimidin-4-one] |
| 500 to 1000 | CC(C)N1CCC(c2ccc3nc(-c4ccc5nn(C)cc5c4)cc(=O)n3c2)CC1 [compound 608, 2-(2-methyl-2H-indazol-5-yl)-7-[1-(propan-2-yl)piperidin-4-yl]-4H-pyrido[1,2-a]pyrimidin-4-one] |
| 500 to 1000 | Cc1cn2nc(-c3cc(=O)n4cc(N5CCC6C(CCN6CCO)C5)ccc4n3)cc2c(C)n1 (centres unmarked) [compound 624, 2-(4,6-dimethylpyrazolo[1,5-a]pyrazin-2-yl)-7-[1-(2-hydroxyethyl)octahydro-5H-pyrrolo[3,2-c]pyridin-5-yl]-4H-pyrido[1,2-a]pyrimidin-4-one] |
| 1000 to 3000 | CCc1nc(C)cn2nc(-c3cc(=O)n4cc(N5CCNCC5)ccc4n3)cc12 [compound 546, 2-(4-ethyl-6-methylpyrazolo[1,5-a]pyrazin-2-yl)-7-(piperazin-1-yl)-4H-pyrido[1,2-a]pyrimidin-4-one] |
| 1000 to 3000 | CCN1CCC(c2cn3c(=O)cc(-c4cc5c(C)nc(C)cn5c4)nc3c(C)n2)CC1 [compound 876, 2-(1,3-dimethylpyrrolo[1,2-a]pyrazin-7-yl)-7-(1-ethylpiperidin-4-yl)-9-methyl-4H-pyrazino[1,2-a]pyrimidin-4-one] |
| 1000 to 3000 | Cc1cc2cc(-c3cc(=O)n4cc(N5CCNCC5)ccc4n3)ccn2n1 [compound 859, 2-(2-methylpyrazolo[1,5-a]pyridin-5-yl)-7-(piperazin-1-yl)-4H-pyrido[1,2-a]pyrimidin-4-one hydrochloride (1:2)] |
| < 100 | CCN1CCC(c2cn3c(=O)cc(-c4cc(F)c5nn(C)cc5c4)nc3c(C)n2)CC1 [compound 872, 7-(1-ethylpiperidin-4-yl)-2-(7-fluoro-2-methyl-2H-indazol-5-yl)-9-methyl-4H-pyrazino[1,2-a]pyrimidin-4-one] |
| < 100 | CCN1CCC(c2cn3c(=O)cc(-c4cc(F)c5nc(C)cn5c4)nc3c(C)n2)CC1 [compound 877, 7-(1-ethylpiperidin-4-yl)-2-(8-fluoro-2-methylimidazo[1,2-a]pyridin-6-yl)-9-methyl-4H-pyrazino[1,2-a]pyrimidin-4-one] |
| 1000 to 3000 | Cc1cn2cc(-c3cc(=O)n4cc(N5CCNCC5)ccc4n3)cc(C(F)(F)F)c2n1 [compound 733, 2-[2-methyl-8-(trifluoromethyl)imidazo[1,2-a]pyridin-6-yl]-7-(piperazin-1-yl)-4H-pyrido[1,2-a]pyrimidin-4-one] |
| 1000 to 3000 | CCc1nc(C)cn2nc(-c3cc(=O)n4cc(C5CCN(CCO)CC5)cc(C)c4n3)cc12 [compound 793, 2-(4-ethyl-6-methylpyrazolo[1,5-a]pyrazin-2-yl)-7-[1-(2-hydroxyethyl)piperidin-4-yl]-9-methyl-4H-pyrido[1,2-a]pyrimidin-4-one] |
